Experimental findings from patent US20160138077A1, “MONITORING AND ASSESSING DEACETYLASE ENZYME ACTIVITY” (THE GENERAL HOSPITAL CORPORATION, priority 2013, published 2016) are described below.

SMILES strings stand for the structures.

The target of one assay is T1, HDAC3 (Homo sapiens, UniProt O15379).
T1 construct: purchased Cayman Chemicals
In words: Caliper microfluidic endpoint IC50 assay. In kind it is biochemical. The protocol: (§1) HP-1 and HP-2 IC50 values for HDAC1 were determined using the Trypsin-coupled assay as well as the Caliper endpoint assay. HP-1 and HP-2 IC50 values for HDAC2, HDAC3, HDAC6 and HDAC8 were determined with the Caliper endpoint assay.
(§2) The Caliper microfluidic assay was performed at the Broad Institute exactly as previously described.^5
(§3) IC50 measurements. HP-1 and HP-2 IC50 values for HDAC1 were determined using the Trypsin-coupled assay as well as the Caliper endpoint assay. HP-1 and HP-2 IC50 values for HDAC2, HDAC3, HDAC6 and HDAC8 were determined with the Caliper endpoint assay (full experimental details in Example 1).

The next assay has as its target T2, HDAC6 (Homo sapiens, UniProt Q9UBN7).
T2 sequence (Q9UBN7 1-1215): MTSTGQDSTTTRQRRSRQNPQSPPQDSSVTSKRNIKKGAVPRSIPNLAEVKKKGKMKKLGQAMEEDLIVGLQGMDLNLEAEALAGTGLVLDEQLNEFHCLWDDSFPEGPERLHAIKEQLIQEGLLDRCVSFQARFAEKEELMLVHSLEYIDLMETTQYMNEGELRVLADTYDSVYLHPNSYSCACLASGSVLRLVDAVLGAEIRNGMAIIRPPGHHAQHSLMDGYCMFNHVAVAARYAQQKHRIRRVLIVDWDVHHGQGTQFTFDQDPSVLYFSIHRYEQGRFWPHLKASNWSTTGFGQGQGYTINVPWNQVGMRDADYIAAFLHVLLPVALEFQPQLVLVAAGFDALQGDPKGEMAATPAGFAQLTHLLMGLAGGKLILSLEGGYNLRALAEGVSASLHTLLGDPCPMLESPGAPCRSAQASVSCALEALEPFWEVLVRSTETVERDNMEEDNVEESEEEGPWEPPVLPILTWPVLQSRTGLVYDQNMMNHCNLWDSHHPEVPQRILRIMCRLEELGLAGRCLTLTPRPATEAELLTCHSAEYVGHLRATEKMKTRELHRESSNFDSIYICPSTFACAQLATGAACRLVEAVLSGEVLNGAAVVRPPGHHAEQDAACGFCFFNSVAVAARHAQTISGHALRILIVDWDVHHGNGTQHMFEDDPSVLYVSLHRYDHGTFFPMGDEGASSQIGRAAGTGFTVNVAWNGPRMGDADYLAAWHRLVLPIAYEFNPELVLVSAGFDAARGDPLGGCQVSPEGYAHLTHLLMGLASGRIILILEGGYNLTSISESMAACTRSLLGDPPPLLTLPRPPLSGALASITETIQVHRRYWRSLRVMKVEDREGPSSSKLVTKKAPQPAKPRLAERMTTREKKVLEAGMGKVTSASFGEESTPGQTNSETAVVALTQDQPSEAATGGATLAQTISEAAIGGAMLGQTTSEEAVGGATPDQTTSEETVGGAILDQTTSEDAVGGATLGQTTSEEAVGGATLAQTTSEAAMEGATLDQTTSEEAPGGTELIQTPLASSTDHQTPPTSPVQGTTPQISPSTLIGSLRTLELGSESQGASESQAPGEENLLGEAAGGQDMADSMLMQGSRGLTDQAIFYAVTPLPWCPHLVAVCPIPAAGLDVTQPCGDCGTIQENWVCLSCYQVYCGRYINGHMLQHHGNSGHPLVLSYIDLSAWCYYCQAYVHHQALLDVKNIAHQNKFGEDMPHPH
In words: Caliper microfluidic endpoint IC50 assay. In kind it is biochemical. How it is done: as §1, §2, §3

T1 sequence (O15379 whole entry): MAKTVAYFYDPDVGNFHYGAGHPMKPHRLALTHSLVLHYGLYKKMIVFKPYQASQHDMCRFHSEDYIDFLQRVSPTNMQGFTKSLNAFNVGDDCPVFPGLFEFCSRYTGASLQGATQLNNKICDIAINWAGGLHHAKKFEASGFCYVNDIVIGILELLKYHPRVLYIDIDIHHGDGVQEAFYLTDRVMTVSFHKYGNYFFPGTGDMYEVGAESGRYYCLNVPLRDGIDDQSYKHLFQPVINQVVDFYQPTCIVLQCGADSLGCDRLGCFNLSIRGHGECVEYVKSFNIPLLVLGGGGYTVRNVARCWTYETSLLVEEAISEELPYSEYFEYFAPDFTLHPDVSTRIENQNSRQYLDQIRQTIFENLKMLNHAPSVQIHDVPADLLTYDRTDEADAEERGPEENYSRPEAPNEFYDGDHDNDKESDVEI
T1 sequence (Q9Y618 395-489 partner limits assumed): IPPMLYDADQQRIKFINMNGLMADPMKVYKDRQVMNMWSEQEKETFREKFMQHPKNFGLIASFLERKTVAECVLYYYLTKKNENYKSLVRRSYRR

As for `CC(=O)NC=CCCCCNC(=O)CCCCCNc1ccc([N+](=O)[O-])c2nonc12` [HP-1], the IC50 against HDAC3 was determined as 59 µM; against HDAC6 (HDAC6, Caliper endpoint assay), 12 µM. At HDAC6 (competitive inhibition with a peptide substrate), the “binding to HDAC6 (in words)” value is listed as “bind”.

The IC50 is the concentration that gives 50% inhibition. Read a high IC50 as lower potency.
